Measured values as given in PMC10155203 (Molecular Pharmaceutics, 2023).
≈ marks a conversion by molar mass, not a printed value. Where two headings read alike, the source gives them in different places.

Key:
CYP3A4 = system: CYP3A4; set-up: method as in PMID 27693678; details: fitted using in vivo data; cited from earlier work
[1] = PBPK modeling in GastroPlus 9.8 (model parameters and predicted absorption); set-up: species or system human; details: estimated; increased from GastroPlus default value
Method: Simulations were performed using the commercially available PBPK modeling platform GastroPlus 9.8 (Simulations Plus, Inc., Lancaster, CA). Input and final parameters for the model were published by Del Frari et al.[29] […] The fasted, fed, and PPI states were predicted for the encorafenib commercial capsule. All input data for the platform are shown in Table 2 and were based on physicochemical properties of the compound, formulation characteristics and absorption, distribution, metabolism, and excretion properties. […] Related to dissolution, the Johnson model was selected. This model is an extension of the Nernst–Brunner dissolution model and accounts for changing particle radius during dissolution as well as for dissolution of cylindrical particles. […] Gathered information concerning physicochemical and biopharmaceutical properties was obtained in-house. Fasted state physiology in the human GI tract was simulated by selecting the fluid volumes as observed by the magnetic resonance imaging study of Mudie et al.[30] to address biorelevant fluid volumes in the different GI compartments. In the case of the fed state, the stomach transit time was adjusted and optimized to a value of 2.25 h for consistency with the observed PK data, and the physiology was adjusted to fed state conditions (default settings). […]

[2] = Physicochemical and biopharmaceutical properties obtained in-house (PBPK input, experimental data)
Method: Simulations were performed using the commercially available PBPK modeling platform GastroPlus 9.8 (Simulations Plus, Inc., Lancaster, CA). Input and final parameters for the model were published by Del Frari et al.[29] […] The fasted, fed, and PPI states were predicted for the encorafenib commercial capsule. All input data for the platform are shown in Table 2 and were based on physicochemical properties of the compound, formulation characteristics and absorption, distribution, metabolism, and excretion properties. […] Related to dissolution, the Johnson model was selected. This model is an extension of the Nernst–Brunner dissolution model and accounts for changing particle radius during dissolution as well as for dissolution of cylindrical particles. […] Gathered information concerning physicochemical and biopharmaceutical properties was obtained in-house. Fasted state physiology in the human GI tract was simulated by selecting the fluid volumes as observed by the magnetic resonance imaging study of Mudie et al.[30] to address biorelevant fluid volumes in the different GI compartments. In the case of the fed state, the stomach transit time was adjusted and optimized to a value of 2.25 h for consistency with the observed PK data, and the physiology was adjusted to fed state conditions (default settings). To simulate PPI conditions, the fasted state physiology was selected (magnetic resonance imaging fluid volumes). However, gastric pH was set to a constant value of pH 7 during the simulation instead of the normal gastric pH of 1.3, as used in the fasted state default settings. […] However, the same results were observed even when the gastric pH was adjusted to a value of 4 or 5 (data not shown).[31] Distribution and clearance parameters were adjusted to reflect a 2-compartmental approach based on the average PK profile of the 100 mg dose as administered in the fasted state to healthy participants (average weight, 83 kg).

[3] = set-up: method as in PMID 27693678; details: estimated using PKPlus module, cited from earlier work
[4] = Study 1: food effect clinical study, single oral dose of encorafenib 100 mg, fasted vs high-fat meal, plasma PK and safety; format: in vivo, human; details: for AUC(0-inf) / AUC(0-t) / Cmax: GM (GCV%); for half-life: arithmetic mean ± SD; for Vd/F / CL/F: mean ± SD; for Vd/F: read-out: Vz/F; for Tmax: median (range)
Method: Both studies were conducted at the Celerion Clinical Research Unit in Lincoln, NE. The trial protocols and informed consent documentation were reviewed and approved by the institutional review boards at the center. These studies were conducted in compliance with the ethical principles originating in or derived from the Declaration of Helsinki and in compliance with all International Council for Harmonization Good Clinical Practice Guideline.
In study 1, participants were randomized to 2 treatment sequences. Participants were either fasted or fed a high-fat meal on day 1 of the first period and received the alternate treatment on day 1 of the second period. Each dose was separated by a washout period of at least 7 days. […] The high-fat breakfast consisted of 2 slices of buttered toast, 2 fried eggs, 2 strips of bacon, 4 oz. of hash brown potatoes, and 240 mL of whole milk. This breakfast met the criteria specified in the FDA guidance for a high-fat meal.[6] […] Water (except water provided with each dosing) was restricted 1 h prior to and 1 h after each study drug administration but was allowed ad libitum at all other times. Participants were housed from day −1 of each period until after the 36 h blood draw and/or study procedures on day 2. Participants returned to the clinical research unit for the 48 and 72 h blood draws.
Additionally, participants were instructed not to crush, split, or chew the study drug.
Serial blood samples for PK were collected in Study 1 predose and at 0.25, 0.5, 1, 1.5, 2, 2.5, 3, 3.5, 4, 5, 6, 8, 10, 12, 24, 36, and 72 h after the day 1 dose in each period.
The actual sample collection times were used for the PK parameter analysis.
The overall safety profile was characterized by laboratory test abnormalities, physical examination, vital signs, ECGs, and AEs. […] Triplicate ECGs were also measured at the end of the studies or upon early termination.
These were back-transformed to obtain the geometric LSMs and ratios of LSMs (geometric mean ratios [GMRs]), and the corresponding 90% CIs of the GMRs, on the original scale.

[5] = human, plasma, po, 100 mg, study 1, 100 mg single oral dose, fasted
[6] = human, plasma, po, 100 mg, study 1, 100 mg single oral dose, fed
[7] = study 1, 100 mg single oral dose, fasted
[8] = study 1, 100 mg single oral dose, fed

COC(=O)N[C@@H](C)CNc1nccc(-c2cn(C(C)C)nc2-c2cc(Cl)cc(NS(C)(=O)=O)c2F)n1 [encorafenib, Encorafenib]
gut CYP3A4 Km (CYP3A4): 213.9 mg/L
gut CYP3A4 Vmax (CYP3A4): 0.0945 mg/s
liver CYP3A4 Km (CYP3A4): 213.9 mg/L
liver CYP3A4 Vmax (CYP3A4): 0.0945 mg/s
mean precipitation time [1]: 90000 s
BCS class behavior ([2]; amorphous drug in the capsule formulation (amorphous solid dispersion)): class 1
solubility ([2]; aqueous buffer, at pH 6.8, experimental data, read-out: reference solubility (amorphous)): 200 µg/mL (≈ 370 µM)
amorphous solubility higher than crystalline solubility ([2]; at pH 6.8): 20 fold
logD ([2]; at pH 6.8, experimental data): 1.8
solubility ([2]; at pH 6.8, experimental data, read-out: reference solubility (crystalline)): 10 µg/mL (≈ 18.5 µM)
Biopharmaceutics Classification System (BCS) class ([2]; drug substance): class 2
logP ([2]; experimental data): 2.59
particle radius ([2]; experimental data, PBPK input): 5 μm
pKa ([2]; experimental data, read-out: pKa (acid)): 6.97
pKa ([2]; experimental data, read-out: pKa (base)): 4.53
clearance ([3]; 2-compartmental, 100 mg fasted): 16.08 L/h[31]
K10 [3]: 0.197 h^–1[31]
K12 [3]: 0.173 h^–1[31]
K21 [3]: 0.016 h^–1[31]
AUC(0-inf) [4, 5]: 3120 ng·h/mL
AUC(0-t) [4, 5]: 3130 ng·h/mL
Cmax [4, 5]: 962 ng/mL
half-life [4, 5]: 4.79 ± 3.79 h
Vd/F [4, 5]: 226 ± 207 L
Tmax ([4]; human, plasma, po, 100 mg, study 1, 100 mg single oral dose, fasted, read-out: Tmax): 1.5 h
AUC(0-t) [4, 6]: 3020 ng·h/mL
Cmax [4, 6]: 621 ng/mL
half-life [4, 6]: 5.61 ± 3.69 h
Vd/F [4, 6]: 262 ± 163 L
Tmax ([4]; human, plasma, po, 100 mg, study 1, 100 mg single oral dose, fed, read-out: Tmax): 3.5 h
AUC(0-inf) ([4]; human, plasma, po, 100 mg, study 1, encorafenib 100 mg single oral dose, fed (high-fat meal)): 3030 ng·h/mL
tolerability ([4]; single oral dose of 100 mg, healthy participants): tolerated
changes in vital signs, laboratory values, or ECG measurements ([4]; study 1): No clinically significant changes
participants reporting headache ([4]; study 1): 73%
participants who discontinued due to an AE related to encorafenib ([4]; study 1): 2 participants
severity of AEs ([4]; study 1): all mild in severity
CL/F [4, 7]: 34.64 ± 14.209 L/h
Tmax [4, 7]: 1.495 (0.997, 3.49) h
CL/F [4, 8]: 35.13 ± 12.535 L/h
Tmax [4, 8]: 3.499 (2.00, 5.00) h
delay of median Tmax under fed conditions ([4]; study 1, fed vs fasted): 2 h
Cmax lower in fed state than fasted ([4]; study 1, fed vs fasted, 100 mg): 36%
decrease in AUCinf with a high-fat meal ([4]; study 1, fed vs fasted, 100 mg): 4%
decrease in AUClast with a high-fat meal ([4]; study 1, fed vs fasted, 100 mg): 4%
participants reporting AEs ([4]; study 1, following encorafenib in the fasted state): 79%
participants reporting AEs ([4]; study 1, following encorafenib in the fed state): 92%
participants reporting flushing ([4]; study 1, most common AE): 83%
participants who discontinued due to AEs ([4]; study 1, of 40 participants who entered): 6 participants
participants reporting AEs ([4]; study 1, overall): 95%
